Earlier results, collected in patent publication US20230172203A1, “PLANT METABOLISM PROMOTING COMPOSITIONS AND METHODS OF USE” (Panoptic Ag Solutions LLC, priority 2021, published 2023).

Tested on: tea plants
Settings: exogenous application; background statement; cited from earlier work

CNC(=O)CC[C@H](N)C(=O)O [γ-glutamylmethylamide]
quality and yield of tea plants (in words): can improve the quality and yield of tea plants by increasing the number of usable leaves
